Laboratory results as given in patent US20130096100A1, “DI(ARYLAMINO)ARYL COMPOUND” (ASTELLAS PHARMA INC., priority 2007, published 2013).

Legend:
[1] = biological target: T1, EML4-ALK fusion protein v1 (Homo sapiens, UniProt Q9UM73, D1529E/I1461V/K1491R); test: Inhibitory activity against the kinase activity of EML4-ALK fusion protein v1 (Test Example 1); type: biochemical; settings: ATP 100 μM, reaction 1 hour, HTRF KinEASE-TK
T1 construct: FLAG (N); made in house
Experimental: EML4-ALK fusion protein v1 (purified from BA/F3 cells expressing EML4-ALK fusion protein v1) was investigated for its phosphorylation activity toward a peptide substrate by using a kinase activity detection kit (HTRF KinEASE-TK; Cisbio Inc.). […] The ATP concentration used was 100 μM. Another reaction solution was prepared to contain the enzyme protein but no test compound (in which the solvent DMSO alone was added at 0.4% in place of the test compound), followed by reaction in the same manner with or without ATP addition. […] The concentration causing 50% inhibition (IC50) was calculated for each test compound by the logistic regression method.
N-terminally FLAG-tagged EML4-ALK fusion protein v1 was inserted into a vector pMX-iresCD8 capable of co-expression of insert cDNA and cell surface antigen CD8 (J. Biol. Chem., 2001, vol. 276, p. 39012-39020) to create a vector FLAG-EML4-ALKv1/pMX-iresCD8 expressing both FLAG-EML4-ALKv1 and CD8. FLAG-EML4-ALKv1/pMX-iresCD8 was used to create a recombinant retrovirus in the same manner as described above and infected into mouse lymphoid cell line BA/F3 cells. Using a magnetic bead reagent for cell separation and a purification column (anti-CD8 monoclonal antibody immobilized on magnetic beads and a MiniMACS purification column; both are products of Miltenyi Biotec Inc.), cell surface CD8-expressing cells were purified conveniently. […] After washing 3 times with PBS, the cells were lysed in a lysis solution (50 mM Tris.HCl (pH 7.4), 150 mM NaCl, 1% Triton X100, 5 mM EDTA, 5 mM EGTA, 1 mM NaVO4, 1 mM DTT and protease inhibitor cocktail complete). The EML4-ALK fusion protein v1 present in the supernatant obtained after centrifugation was purified using ANTI-FLAG M2 Affinity Gel (SIGMA-ALDRICH Inc.) according to the method described in the product information document.
The EML4-ALK fusion protein v1 purified as above was investigated for its phosphorylation activity toward a peptide substrate using a kinase activity detection kit (HTRF KinEASE-TK; Cisbio Inc.). Using TK substrate 1, which was included in the kit, as the substrate, and after adding no ATP or 100 μM ATP, the mixtures were reacted at room temperature for 1 hour, and the count of HTRF was detected as recommended by the Kits manufacturer.

[2] = biological target: T2, Mutant EGFR (L858R) protein (Homo sapiens, UniProt P00533, L858R); test: Inhibitory activity against the kinase activity of mutant EGFR (L858R) protein (Test Example 2); type: biochemical; settings: ATP 5 μM, reaction 1 hour, HTRF KinEASE-TK
T2 construct: purchased Cana Biosciences Inc., Japan (sic; Carna Biosciences)
T2 sequence (P00533 25-1210 L858R): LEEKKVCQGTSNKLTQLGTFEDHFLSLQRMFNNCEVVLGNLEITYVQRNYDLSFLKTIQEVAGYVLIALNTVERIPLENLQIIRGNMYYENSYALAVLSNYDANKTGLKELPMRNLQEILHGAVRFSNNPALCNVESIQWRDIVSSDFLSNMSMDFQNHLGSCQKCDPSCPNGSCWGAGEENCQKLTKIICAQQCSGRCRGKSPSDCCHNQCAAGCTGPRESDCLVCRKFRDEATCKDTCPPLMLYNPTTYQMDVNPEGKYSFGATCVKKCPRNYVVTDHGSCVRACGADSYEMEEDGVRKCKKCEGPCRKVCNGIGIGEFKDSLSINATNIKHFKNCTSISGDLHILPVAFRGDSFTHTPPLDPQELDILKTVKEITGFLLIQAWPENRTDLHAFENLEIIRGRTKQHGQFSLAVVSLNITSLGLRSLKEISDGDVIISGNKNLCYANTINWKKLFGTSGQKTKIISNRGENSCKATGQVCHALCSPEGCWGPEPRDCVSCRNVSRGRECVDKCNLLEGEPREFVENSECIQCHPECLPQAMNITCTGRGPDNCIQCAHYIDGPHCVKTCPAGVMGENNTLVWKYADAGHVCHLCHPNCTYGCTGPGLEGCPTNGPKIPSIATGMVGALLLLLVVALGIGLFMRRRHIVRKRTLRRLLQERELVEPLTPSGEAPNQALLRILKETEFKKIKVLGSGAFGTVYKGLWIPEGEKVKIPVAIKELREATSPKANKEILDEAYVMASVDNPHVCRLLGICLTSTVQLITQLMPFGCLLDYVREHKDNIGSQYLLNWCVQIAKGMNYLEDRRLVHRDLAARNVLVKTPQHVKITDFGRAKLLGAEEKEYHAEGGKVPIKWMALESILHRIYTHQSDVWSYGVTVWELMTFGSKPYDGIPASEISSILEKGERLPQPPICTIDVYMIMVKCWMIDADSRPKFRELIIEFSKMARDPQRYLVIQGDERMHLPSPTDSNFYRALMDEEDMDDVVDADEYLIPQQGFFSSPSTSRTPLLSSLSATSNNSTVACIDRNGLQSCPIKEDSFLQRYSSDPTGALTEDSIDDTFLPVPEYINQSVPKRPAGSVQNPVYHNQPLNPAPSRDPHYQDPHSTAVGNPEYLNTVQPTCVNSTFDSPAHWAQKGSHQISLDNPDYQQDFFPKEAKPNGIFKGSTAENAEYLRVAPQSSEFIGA
Experimental: The ATP concentration used was 5 μM. Another reaction solution was prepared to contain the enzyme protein but no test compound (in which the solvent DMSO alone was added at 0.4% in place of the test compound), followed by reaction in the same manner with or without ATP addition. […] The concentration causing 50% inhibition (IC50) was calculated for each test compound by the logistic regression method.

[3] = test system: human non-small cell lung cancer cell line NCI-H2228 cells (EML4-ALK fusion protein-expressing cells); test: Inhibitory effect against anchorage-independent cell growth of NCI-H2228 cells (Test Example 3); type: cell-based; settings: 120 h, spheroid plate, 5 days, CellTiter-Glo
Text: Measurement for anchorage-independent cell growth (colony method, etc) has been known to be a system for investigating the anticancer action (pharmacological effect) of test compounds (Clinical Oncology, second edition, Cancer and Chemotherapy Publishers Inc.). In place of the colony method, there is a following method using spheroid plates for measuring the growth of non-attached cells.
(§1) In a 96-well spheroid plate (Sumilon Celltight Spheroid 96U; Sumitomo Bakelite Co., Ltd., Japan), human non-small cell lung cancer cell line NCI-H2228 cells were seeded at 2000 cells per well in RPMI1640 medium (Invitrogen) containing 10% fetal bovine serum. NCI-H2228 cells are those expressing another EML4-ALK fusion protein, which is different from the EML4-ALK fusion protein v1 because it is encoded by an EML4-ALK fusion polynucleotide whose fusion point on EML4 cDNA is different from that of the EML4-ALK fusion polynucleotide v1, but whose ALK region is the same as that of the EML4-ALK fusion polynucleotide v1. The above NCI-H2228 cells seeded in the plate were cultured overnight under 5% CO2 at 37° C., followed by addition of a test compound (final concentration: 10 μM to 1 nM). As a negative control, DMSO used as a solvent was added at the same concentration as the test compound. Then, the cells were cultured under 5% CO2 at 37° C. for 5 days. A cell counting reagent (CellTiter-Glo™ Luminescent Cell Viability Assay; Promega) was added and agitated for 20 minutes, followed by measurement with a luminometer (ML3000 microtiter plate luminometer; Dynatech Laboratories).

[4] = test system: human non-small cell lung cancer cell line HCC827 cells (mutant EGFR protein-expressing cells); test: Inhibitory effect against anchorage-independent cell growth of HCC827 cells (Test Example 4); type: cell-based; settings: 120 h, spheroid plate, 5 days, CellTiter-Glo
Experimental: as §1
Evaluation of Inhibitory Effect Against Anchorage-Independent Cell Growth of Human Non-Small Cell Lung Cancer Cell Line HCC827 Cells (Mutant EGFR (with Partial Deletion of Exon 19 in EGFR) Protein-Expressing Cells, American Type Culture Collection)
Evaluation was performed in the same manner as shown in Test Example 3.

[5] = test system: NCI-H2228 cells (tumor); test: Antitumor test (in vivo) on NCI-H2228 cells (Test Example 8); settings: oral 3 mg/kg once a day for 14 days, NOD/SCID mice; tumor volume
Experimental: 3×10^6 cells of NCI-H2228 cells suspended in PBS were inoculated subcutaneously by injection to the back of 5 weeks old male NOD/SCID mice (Charles River Japan, Inc.). After 3 weeks of the inoculation, the administration of test compounds was initiated. The test was conducted in the solvent group and test compound groups, 6 animals per group. The test compounds were each dissolved in a solvent composed of 10% 1-methyl-2-pyrrolidinone (SIGMA-ALDRICH Inc.)/90% polyethylene glycol 300 (Fluka Inc.) and administered orally at a dose of 3 mg/kg. Administrations were performed once a day for 14 days, and body weight and tumor size were measured every other day. Tumor volume was calculated using the following formula.
[Tumor volume (mm^3)]=[Tumor major axis (mm)]×[tumor minor axis (mm)]^2×0.5

T1 sequence (Q9UM73 with tags, fused parts or gaps I1461V/K1491R/D1529E): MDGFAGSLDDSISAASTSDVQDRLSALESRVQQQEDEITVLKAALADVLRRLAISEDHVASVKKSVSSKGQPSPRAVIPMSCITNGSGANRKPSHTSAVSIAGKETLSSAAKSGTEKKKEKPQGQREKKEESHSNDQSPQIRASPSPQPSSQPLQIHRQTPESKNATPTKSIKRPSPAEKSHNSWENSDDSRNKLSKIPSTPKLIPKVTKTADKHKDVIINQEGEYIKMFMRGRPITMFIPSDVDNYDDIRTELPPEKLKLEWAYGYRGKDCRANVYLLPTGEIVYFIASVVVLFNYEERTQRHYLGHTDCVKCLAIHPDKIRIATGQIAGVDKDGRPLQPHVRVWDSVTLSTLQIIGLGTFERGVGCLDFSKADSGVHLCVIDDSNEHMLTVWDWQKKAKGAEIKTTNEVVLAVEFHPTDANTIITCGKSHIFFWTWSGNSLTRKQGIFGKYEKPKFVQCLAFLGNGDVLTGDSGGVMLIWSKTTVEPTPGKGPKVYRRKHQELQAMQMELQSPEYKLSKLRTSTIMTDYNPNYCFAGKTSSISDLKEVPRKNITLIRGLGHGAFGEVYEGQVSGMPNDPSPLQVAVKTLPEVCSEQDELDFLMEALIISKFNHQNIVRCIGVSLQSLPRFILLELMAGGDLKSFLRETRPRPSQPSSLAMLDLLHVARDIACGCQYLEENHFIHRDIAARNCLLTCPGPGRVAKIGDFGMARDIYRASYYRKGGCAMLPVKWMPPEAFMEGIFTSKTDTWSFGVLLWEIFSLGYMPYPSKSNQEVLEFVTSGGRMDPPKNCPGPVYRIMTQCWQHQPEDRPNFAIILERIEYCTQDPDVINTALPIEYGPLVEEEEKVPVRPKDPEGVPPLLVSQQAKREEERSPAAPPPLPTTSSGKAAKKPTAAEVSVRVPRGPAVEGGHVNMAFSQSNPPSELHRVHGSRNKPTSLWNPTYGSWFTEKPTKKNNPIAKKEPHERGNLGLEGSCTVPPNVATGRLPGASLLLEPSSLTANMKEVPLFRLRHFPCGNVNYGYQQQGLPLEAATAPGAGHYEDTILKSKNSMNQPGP

Row | SMILES | IC50 [1] [nM] | IC50 [2] [nM] | IC50 [3] [nM] | IC50 [4] [nM] | inhibition of the growth of NCI-H2228 cells (tumor) [5] [%]
1 | CCNS(=O)(=O)c1ccccc1Nc1ncnc(Nc2ccc(N3CCC(N4CCN(C)CC4)CC3)cc2OC)n1 [Example 123] | 33 | 100 | 30 | 238 | 108
2 | COc1cc(N2CCC(N3CCN(C)CC3)CC2)ccc1Nc1ncnc(Nc2ccccc2S(=O)(=O)C(C)C)n1 [Example 23] | 17 | 120 | 71 | 272 | 116
